In PubChem BioAssay (NCI):
“And” between values parts separate entries of the source, which are not always exact repeats. Equal values may be shown once.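 Compound exposure: 48 hours, 5 concentrations, 96-well plates. Abbreviation: GI50, concentration required for 50% inhibition of growth. At the TGI there is no net growth.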

How the values were obtained:
Experiment in all cases: growth of human tumour cells (NCI), 48 h
[1] = system: HOP-92 NSCLC
[2] = system: KM12 colon
[3] = system: A498 renal
[4] = system: NCI-H460 lung
[5] = system: NCI-H226 lung
[6] = system: NCI-H23 lung
[7] = system: RXF 393 renal
[8] = system: HCC-2998 colon
[9] = system: MDA-N
[10] = system: MDA-MB-231 breast
[11] = system: OVCAR-3 ovarian
[12] = system: MOLT-4 leukemia
[13] = system: TK-10 renal
[14] = system: CCRF-CEM leukemia
[15] = system: SN12C renal
[16] = system: T-47D breast
[17] = system: OVCAR-5 ovarian
[18] = system: 786-0 renal
[19] = system: BT-549 breast
[20] = system: OVCAR-4 ovarian
[21] = system: HOP-62 NSCLC
[22] = system: OVCAR-8 ovarian
[23] = system: LOX IMVI melanoma
[24] = system: CAKI-1 renal
[25] = system: IGROV1 ovarian
[26] = system: SK-OV-3 ovarian
[27] = system: MDA-MB-435
[28] = system: RPMI-8226 leukemia
[29] = system: HS 578T breast
[30] = system: UACC-257 melanoma
[31] = system: SK-MEL-28 melanoma
[32] = system: MALME-3M melanoma
[33] = system: SK-MEL-5 melanoma
[34] = system: SK-MEL-2 melanoma
[35] = system: PC-3 prostate
[36] = system: SF-295 CNS
[37] = system: M14 melanoma
[38] = system: COLO 205 colon
[39] = system: SR leukemia
[40] = system: DU-145 prostate
[41] = system: A549 NSCLC
[42] = system: NCI/ADR-RES ovarian
[43] = system: HT29 colon
[44] = system: HCT-116 colon
[45] = system: ACHN renal
[46] = system: SNB-19 CNS
[47] = system: K-562 leukemia
[48] = system: HCT-15 colon
[49] = system: SW-620 colon
[50] = system: SNB-75 CNS
[51] = system: UACC-62 melanoma
[52] = system: SF-268 CNS
[53] = system: UO-31 renal
[54] = system: U251 CNS
[55] = system: EKVX NSCLC
[56] = system: SF-539 CNS
[57] = system: NCI-H522 lung
[58] = system: MCF7 breast
[59] = system: HL-60(TB) leukemia

For O=C(Cn1c2ccc(Br)cc2c2nc3ccccc3nc21)NCc1ccccc1, the TGI [1] was 13.1 µM, the TGI [2] was over 100 µM and the TGI [3] was over 100 µM. The TGI [4] was over 100 µM, the TGI [5] was over 100 µM and the TGI [6] was over 100 µM. It also gave a TGI [7] of 26.9 µM, a TGI [8] of over 100 µM and a TGI [9] of over 100 µM. The TGI [10] was over 100 µM, the TGI [11] was over 100 µM and the TGI [12] was over 100 µM. It also gave a TGI [13] of 49.5 µM, a TGI [14] of over 100 µM and a TGI [15] of over 100 µM. It also gave a TGI [16] of 18.6 µM, a TGI [17] of over 100 µM and a TGI [18] of 39 µM. The TGI [19] was over 100 µM, the TGI [20] was over 100 µM and the TGI [21] was over 100 µM. The TGI [22] was over 100 µM, the TGI [23] was over 100 µM and the TGI [24] was over 100 µM. For the same compound, the TGI [25] was over 100 µM, the TGI [26] was over 100 µM and the TGI [27] was over 100 µM. It also gave a TGI [28] of over 100 µM, a TGI [29] of 92.4 µM and a TGI [30] of over 100 µM. The TGI [31] was over 100 µM, the TGI [32] was over 100 µM and the TGI [33] was over 100 µM. The TGI [34] was 95.1 µM, the TGI [35] was over 100 µM and the TGI [36] was over 100 µM. It also gave a TGI [37] of over 100 µM, a TGI [38] of over 100 µM and a TGI [39] of over 100 µM. It also gave a TGI [40] of over 100 µM, a TGI [41] of over 100 µM and a TGI [42] of over 100 µM. For the same compound, the TGI [43] was over 100 µM, the TGI [44] was over 100 µM and the TGI [45] was 41.7 µM. The TGI [46] was 72.4 µM, the TGI [47] was over 100 µM and the TGI [48] was over 100 µM. The TGI [49] was over 100 µM, the TGI [50] was 19.8 µM and the TGI [51] was 93.4 µM. It also gave a TGI [52] of over 100 µM, a TGI [53] of over 100 µM and a TGI [54] of 69.7 µM.

With O=S(=O)(F)Cc1ccccc1 the TGI [1] was over 100 µM, the TGI [2] was over 100 µM and the TGI [3] was over 100 µM. For the same compound, the TGI [4] was over 100 µM, the TGI [5] was over 100 µM and the TGI [6] was over 100 µM. The TGI [8] was over 100 µM, the TGI [9] was over 100 µM and the TGI [55] was over 100 µM. It also gave a TGI [10] of over 100 µM, a TGI [11] of over 100 µM and a TGI [12] of over 100 µM. For the same compound, the TGI [13] was over 100 µM, the TGI [14] was over 100 µM and the TGI [15] was over 100 µM. It also gave a TGI [17] of over 100 µM, a TGI [18] of over 100 µM and a TGI [19] of over 100 µM. For the same compound, the TGI [20] was over 100 µM, the TGI [21] was over 100 µM and the TGI [22] was over 100 µM. The TGI [23] was over 100 µM, the TGI [24] was over 100 µM and the TGI [56] was over 100 µM. For the same compound, the TGI [25] was over 100 µM, the TGI [26] was over 100 µM and the TGI [27] was over 100 µM. It also gave a TGI [28] of over 100 µM, a TGI [30] of over 100 µM and a TGI [31] of over 100 µM. For the same compound, the TGI [32] was 70 µM, the TGI [33] was over 100 µM and the TGI [34] was over 100 µM. For the same compound, the TGI [35] was over 100 µM, the TGI [57] was over 100 µM and the TGI [36] was over 100 µM. The TGI [37] was over 100 µM, the TGI [38] was over 100 µM and the TGI [39] was over 100 µM. For the same compound, the TGI [40] was over 100 µM, the TGI [41] was over 100 µM and the TGI [42] was over 100 µM. The TGI [43] was over 100 µM, the TGI [44] was over 100 µM and the TGI [45] was over 100 µM. It also gave a TGI [46] of over 100 µM, a TGI [47] of over 100 µM and a TGI [48] of over 100 µM. For the same compound, the TGI [49] was over 100 µM, the TGI [50] was over 100 µM and the TGI [58] was over 100 µM. For the same compound, the TGI [51] was over 100 µM, the TGI [52] was over 100 µM and the TGI [53] was over 100 µM. The TGI [54] was over 100 µM.

CC(=O)OCC1OC(n2c(C)c(C)cc(C#N)c2=S)C(OC(C)=O)C(OC(C)=O)C1OC(C)=O (stereo unspecified) gave a TGI [1] of over 100 µM, a TGI [2] of over 100 µM and a TGI [3] of over 100 µM. For the same compound, the TGI [4] was over 100 µM, the TGI [5] was over 100 µM and the TGI [6] was over 100 µM. The TGI [7] was over 100 µM, the TGI [8] was over 100 µM and the TGI [9] was over 100 µM. It also gave a TGI [55] of over 100 µM, a TGI [10] of over 100 µM and a TGI [11] of over 100 µM. The TGI [12] was over 100 µM, the TGI [13] was over 100 µM and the TGI [15] was over 100 µM. For the same compound, the TGI [16] was over 100 µM, the TGI [17] was over 100 µM and the TGI [18] was over 100 µM. It also gave a TGI [19] of over 100 µM, a TGI [20] of over 100 µM and a TGI [21] of over 100 µM. The TGI [22] was over 100 µM, the TGI [23] was over 100 µM and the TGI [24] was over 100 µM. The TGI [56] was over 100 µM, the TGI [25] was over 100 µM and the TGI [28] was over 100 µM. It also gave a TGI [29] of over 100 µM, a TGI [30] of over 100 µM and a TGI [31] of over 100 µM. The TGI [32] was over 100 µM, the TGI [33] was over 100 µM and the TGI [34] was over 100 µM. The TGI [35] was over 100 µM, the TGI [57] was over 100 µM and the TGI [36] was over 100 µM. The TGI [37] was over 100 µM, the TGI [39] was over 100 µM and the TGI [40] was over 100 µM. It also gave a TGI [41] of over 100 µM, a TGI [43] of over 100 µM and a TGI [44] of over 100 µM. For the same compound, the TGI [45] was over 100 µM, the TGI [46] was over 100 µM and the TGI [47] was over 100 µM. It also gave a TGI [59] of over 100 µM, a TGI [48] of over 100 µM and a TGI [49] of over 100 µM. The GI50 [50] was 17 µM and > 100 µM, the TGI [50] was over 100 µM and the TGI [58] was over 100 µM. The TGI [51] was over 100 µM, the TGI [52] was over 100 µM and the TGI [53] was over 100 µM. It also gave a TGI [54] of over 100 µM.

Work on COC(=O)c1csc(-c2csc(CCNC(=O)OC(C)(C)C)n2)n1 yielded a TGI [1] of over 100 µM, a TGI [2] of over 100 µM and a TGI [3] of 99 µM. For the same compound, the TGI [4] was over 100 µM, the TGI [5] was over 100 µM and the TGI [6] was over 100 µM. The TGI [7] was over 100 µM, the TGI [8] was over 100 µM and the TGI [9] was over 100 µM. It also gave a TGI [55] of over 100 µM, a TGI [11] of over 100 µM and a TGI [12] of over 100 µM. It also gave a TGI [13] of over 100 µM, a TGI [14] of over 100 µM and a TGI [15] of over 100 µM. For the same compound, the TGI [17] was over 100 µM, the TGI [18] was over 100 µM and the TGI [19] was over 100 µM. The TGI [21] was over 100 µM, the TGI [22] was over 100 µM and the TGI [56] was over 100 µM. For the same compound, the TGI [25] was over 100 µM, the TGI [26] was over 100 µM and the TGI [27] was over 100 µM. For the same compound, the TGI [28] was over 100 µM, the TGI [29] was over 100 µM and the TGI [30] was over 100 µM. For the same compound, the TGI [31] was over 100 µM, the TGI [32] was over 100 µM and the TGI [33] was over 100 µM. It also gave a TGI [35] of over 100 µM, a TGI [36] of over 100 µM and a TGI [37] of over 100 µM. For the same compound, the TGI [38] was over 100 µM, the TGI [39] was over 100 µM and the TGI [40] was over 100 µM. The TGI [41] was over 100 µM, the TGI [42] was over 100 µM and the TGI [43] was over 100 µM. The TGI [44] was over 100 µM, the TGI [45] was over 100 µM and the TGI [46] was over 100 µM. For the same compound, the TGI [47] was over 100 µM, the TGI [59] was over 100 µM and the TGI [48] was over 100 µM. For the same compound, the TGI [49] was over 100 µM, the TGI [50] was over 100 µM and the TGI [58] was over 100 µM. The TGI [51] was over 100 µM, the TGI [52] was over 100 µM and the TGI [53] was over 100 µM. The TGI [54] was over 100 µM.
